# Test: recombinant UMI read abundance after kanamycin selection (control-corrected) (log10(CPM+1)); higher = more efficient recombination; extreme values may be limits of the assay; sequences stand for … in AGTGCAGAGAAAATCGGCCAGTTTTCTCTGCCTGCAGTCCGCATGCCGTGGGACCCCTTGGGTTCTAACCTGTTGCCTAGATTTATGCAGCGGACTGCCTTTCTCCCAAAGTGATAAACCGG…AGGTTGGTTTCACT; site = the 11-nt donor
# How it was run: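 Values, expressed as log10(CPM+1), derive from recombinant UMI counts converted to CPM, averaged across replicates and scaled by control-derived factors. Plating was with IPTG (0.07 mM) plus kanamycin or unselected, two replicates each. The screen pooled donor and donor-binding-loop pairs for the IS621 bridge recombinase in Escherichia coli.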
# 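Further: IS621 bridge recombinase in Escherichia coli cells against a fixed T5 target plasmid.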
row,Sequence,recombinant UMI read abundance (log10)
1,TACCACACATGGACCGGTTTTCCCGGTAATCCGTATTTGTC (site TACCACACTGA),2.09
2,TACCTAGCATGGACCGGTTTTCCCGGTAATCCGTATTTGAA (site TAACTAGCTTT),0
3,TACCTAGCATGGACCGGTTTTCCCGGTAATCCGTATTTGAA (site TACCTAGCTTT),0.00543
4,TACCTAGCATGGACCGGTTTTCCCGGTAATCCGTATTTGAA (site TAGCTAGCTTT),0
5,TACCTAGCATGGACCGGTTTTCCCGGTAATCCGTATTTGAA (site TATCTAGCTTT),0.0166
6,TACCTGACATGGACCGGTTTTCCCGGTAATCCGTATTTGTG (site TACCTGACTCA),0.0209
7,TACGACGCATGGACCGGTTTTCCCGGTAATCCGTATTTGGG (site TACGACGCTCC),0.012
8,TACGGAACATGGACCGGTTTTCCCGGTAATCCGTATTTGCT (site TACGGAACTAG),0.249
9,TACGGACCATGGACCGGTTTTCCCGGTAATCCGTATTTGTC (site TACGGACCTGA),0
10,TACGGCCCATGGACCGGTTTTCCCGGTAATCCGTATTTGCG (site TACGGCCCTCG),0.024
11,TACGTCACATGGACCGGTTTTCCCGGTAATCCGTATTTGGG (site TACGTCACTCC),0.0239
12,TACGTGACATGGACCGGTTTTCCCGGTAATCCGTATTTGCA (site TACGTGACTTG),2.29
13,TACTAGACATGGACCGGTTTTCCCGGTAATCCGTATTTGCT (site TACTAGACTAG),1.84
14,TACTAGACATGGACCGGTTTTCCCGGTAATCCGTATTTGCT (site TACTCGACTAG),0.00336
15,TACTAGACATGGACCGGTTTTCCCGGTAATCCGTATTTGCT (site TACTGGACTAG),0
16,TACTAGACATGGACCGGTTTTCCCGGTAATCCGTATTTGCT (site TACTTGACTAG),0
17,TACTAGTCATGGACCGGTTTTCCCGGTAATCCGTATTTGGA (site TACTAGTCTTC),1.59
18,TACTCCTCATGGACCGGTTTTCCCGGTAATCCGTATTTGCC (site AACTCCTCTGG),0.934
19,TACTCCTCATGGACCGGTTTTCCCGGTAATCCGTATTTGCC (site CACTCCTCTGG),1.86

row,Sequence,recombinant UMI read abundance (log10)
1,TACTCCTCATGGACCGGTTTTCCCGGTAATCCGTATTTGCC (site GACTCCTCTGG),0.715
2,TACTCCTCATGGACCGGTTTTCCCGGTAATCCGTATTTGCC (site TACTCCTCTGG),2.63
3,TACTCGACATGGACCGGTTTTCCCGGTAATCCGTATTTGCT (site TACTAGACTAG),0.956
4,TACTCGACATGGACCGGTTTTCCCGGTAATCCGTATTTGCT (site TACTCGACTAG),1.49
5,TACTCGACATGGACCGGTTTTCCCGGTAATCCGTATTTGCT (site TACTGGACTAG),0.00865
6,TACTCGACATGGACCGGTTTTCCCGGTAATCCGTATTTGCT (site TACTTGACTAG),1.01
7,TACTCGACATGGACCGGTTTTCCCGGTAATCCGTATTTGTC (site TACTCGACTGA),0.0119
8,TACTGCGCATGGACCGGTTTTCCCGGTAATCCGTATTTGAC (site TACTGCGCTGT),1.9
9,TACTGGTCATGGACCGGTTTTCCCGGTAATCCGTATTTGAC (site TACTGGTCTGT),1.07
10,TACTTCGCATGGACCGGTTTTCCCGGTAATCCGTATTTGAT (site TACTTCGCTAT),0.583
11,TACTTCTCATGGACCGGTTTTCCCGGTAATCCGTATTTGTT (site TACTTCTCTAA),1.35
12,TACTTGACATGGACCGGTTTTCCCGGTAATCCGTATTTGAT (site TACTTGACTAA),0.0207
13,TACTTGACATGGACCGGTTTTCCCGGTAATCCGTATTTGAT (site TACTTGACTAC),0.015
14,TACTTGACATGGACCGGTTTTCCCGGTAATCCGTATTTGAT (site TACTTGACTAG),0.00211
15,TACTTGACATGGACCGGTTTTCCCGGTAATCCGTATTTGAT (site TACTTGACTAT),0.476
16,TACTTGACATGGACCGGTTTTCCCGGTAATCCGTATTTGCG (site TACTTGACTAG),0.00183
17,TACTTGACATGGACCGGTTTTCCCGGTAATCCGTATTTGCG (site TACTTGACTCG),0.524
18,TACTTGACATGGACCGGTTTTCCCGGTAATCCGTATTTGCG (site TACTTGACTGG),0
19,TACTTGACATGGACCGGTTTTCCCGGTAATCCGTATTTGCG (site TACTTGACTTG),0

row,Sequence,recombinant UMI read abundance (log10)
1,TACTTGACATGGACCGGTTTTCCCGGTAATCCGTATTTGTT (site TACTTGACTAA),0.00709
2,TACTTGACATGGACCGGTTTTCCCGGTAATCCGTATTTGTT (site TACTTGACTAC),0.0106
3,TACTTGACATGGACCGGTTTTCCCGGTAATCCGTATTTGTT (site TACTTGACTAG),0.00636
4,TACTTGACATGGACCGGTTTTCCCGGTAATCCGTATTTGTT (site TACTTGACTAT),0.00466
5,TACTTGGCATGGACCGGTTTTCCCGGTAATCCGTATTTGCT (site TACTTGACTAG),0.00409
6,TACTTGGCATGGACCGGTTTTCCCGGTAATCCGTATTTGCT (site TACTTGCCTAG),0.00558
7,TACTTGGCATGGACCGGTTTTCCCGGTAATCCGTATTTGCT (site TACTTGGCTAG),0.00377
8,TACTTGGCATGGACCGGTTTTCCCGGTAATCCGTATTTGCT (site TACTTGTCTAG),0
9,TACTTGGCATGGACCGGTTTTCCCGGTAATCCGTATTTGGA (site AACTTGGCTTC),0.0162
10,TACTTGGCATGGACCGGTTTTCCCGGTAATCCGTATTTGGA (site CACTTGGCTTC),0.00371
11,TACTTGGCATGGACCGGTTTTCCCGGTAATCCGTATTTGGA (site GACTTGGCTTC),0.00882
12,TACTTGGCATGGACCGGTTTTCCCGGTAATCCGTATTTGGA (site TACTTGGCTTC),0.216
13,TACTTGTCATGGACCGGTTTTCCCGGTAATCCGTATTTGGG (site TACTTGTCTCC),0.17
14,TACTTTACATGGACCGGTTTTCCCGGTAATCCGTATTTGCT (site TACTTAACTAG),0
15,TACTTTACATGGACCGGTTTTCCCGGTAATCCGTATTTGCT (site TACTTCACTAG),1.36
16,TACTTTACATGGACCGGTTTTCCCGGTAATCCGTATTTGCT (site TACTTGACTAG),0.00292
17,TACTTTACATGGACCGGTTTTCCCGGTAATCCGTATTTGCT (site TACTTTACTAG),1.01
18,TAGAATACATGGACCGGTTTTCCCGGTAATCCGTATTTGGA (site TAGAATACTTA),0.00272
19,TAGAATACATGGACCGGTTTTCCCGGTAATCCGTATTTGGA (site TAGAATACTTC),1.99

# From the supplement of paper PMC11208160
